Source: ChEMBL document CHEMBL3621149, “Cytotoxic labdane-type diterpenes from Hedychium longipetalum inhibiting production of nitric oxide” (Bioorg Med Chem Lett, 2015)
≈ marks a conversion by molar mass, not a printed value. Peptide text beside a SMILES is read from it. * marks the point of attachment. Cbz = O=C(OCc1ccccc1)*

Legend:
Type in all cases: functional, cell-based
RAW264.7 = experiment: Inhibition of LPS and IFN-gamma-stimulated nitric oxide production in mouse RAW264.7 cells after 18 hrs by Griess method; settings: RAW264.7, 18 h
[1] = Cytotoxicity against human SGC7901 cells after 48 hrs by SRB assay; settings: SGC-7901, 48 h
HeLa = experiment: Cytotoxicity against human HeLa cells after 48 hrs by SRB assay

Structure (SMILES)	IC50 (RAW264.7) [µg/mL]	IC50 [1] [µg/mL]	IC50 (HeLa) [µg/mL]
CC(C)C[C@@H](C=O)NC(=O)[C@H](CC(C)C)NC(=O)[C@H](CC(C)C)NC(=O)OCc1ccccc1 [MG-132] (Cbz-Leu-Leu-Leu-aldehyde)	0.08 (≈ 0.168 µM)	–	–
C=C1[C@@H](O)C[C@H]2C(C)(C)CCC[C@]2(C)[C@H]1/C=C/C1=CC(=O)OC1O (stereo partly specified) [HEDYFORRESTIN C]	2.77 (≈ 8.33 µM)	7.29 (≈ 21.9 µM)	9.21 (≈ 27.7 µM)
C=C1[C@@H](O)C[C@H]2C(C)(C)CCC[C@]2(C)[C@H]1/C=C/C1=CCOC1=O	6.52 (≈ 20.6 µM)	14.5 (≈ 45.9 µM)	14.8 (≈ 46.9 µM)
CC(=O)O[C@H]1C(=O)[C@@]2(C)[C@H]([C@H](OC(=O)c3ccccc3)[C@]3(O)C[C@H](OC(=O)[C@H](O)[C@@H](NC(=O)c4ccccc4)c4ccccc4)C(C)=C1C3(C)C)[C@]1(OC(C)=O)CO[C@@H]1C[C@@H]2O [PACLITAXEL]	–	0.2 (≈ 0.234 µM)	0.1 (≈ 0.117 µM)
CC1(C)CCC[C@]2(C)[C@@H]3C(=CC(=O)[C@@H]12)CO[C@H]3C(=O)c1ccoc1	7.5 (≈ 22.8 µM)	> 25	> 25

Second part, led by results:

IC50 (RAW264.7) [µg/mL]	Structure (SMILES)	IC50 [1] [µg/mL]	IC50 (HeLa) [µg/mL]
6.1 (≈ 17.5 µM)	C=C1C[C@@H](O)[C@H]2C(C)(C)CCC[C@]2(C)[C@H]1C/C=C1/CC(OC)OC1=O (stereo partly specified)	8.74 (≈ 25.1 µM)	11.3 (≈ 32.5 µM)
5.58 (≈ 16.8 µM)	C=C1[C@@H](O)[C@@H](O)[C@H]2C(C)(C)CCC[C@]2(C)[C@H]1/C=C/C1=CCOC1=O	> 25	> 25
0.56 (≈ 1.86 µM)	C=C1C[C@@H](O)[C@H]2C(C)(C)CCC[C@]2(C)[C@H]1/C=C/c1ccoc1 [YUNNACORONARIN A]	6.21 (≈ 20.7 µM)	6.58 (≈ 21.9 µM)
